Results as given in PubChem BioAssay AID463203 (Broad Institute, 2010).
Activity calls are given as the source filed them.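 The calls were made as follows: active = more than half of replicate measurements showing over 20% loss of kinase signal relative to plate controls; inconclusive = some but at most half of replicates over 20% loss; inactive = no replicate over 20% signal loss.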

Target: Glycogen synthase kinase-3 alpha (Homo sapiens) (UniProt P49840)
Assay: concentration-response blocking of human GSK3A – biochemical, luminescence, cell-free homogeneous, retest, dose response (AID 463203)
Settings: GSK-3 alpha enzyme, ADP-Glo luminescence, 60 min

Chain of Glycogen synthase kinase-3 alpha (Homo sapiens) (P49840 whole entry, looked up): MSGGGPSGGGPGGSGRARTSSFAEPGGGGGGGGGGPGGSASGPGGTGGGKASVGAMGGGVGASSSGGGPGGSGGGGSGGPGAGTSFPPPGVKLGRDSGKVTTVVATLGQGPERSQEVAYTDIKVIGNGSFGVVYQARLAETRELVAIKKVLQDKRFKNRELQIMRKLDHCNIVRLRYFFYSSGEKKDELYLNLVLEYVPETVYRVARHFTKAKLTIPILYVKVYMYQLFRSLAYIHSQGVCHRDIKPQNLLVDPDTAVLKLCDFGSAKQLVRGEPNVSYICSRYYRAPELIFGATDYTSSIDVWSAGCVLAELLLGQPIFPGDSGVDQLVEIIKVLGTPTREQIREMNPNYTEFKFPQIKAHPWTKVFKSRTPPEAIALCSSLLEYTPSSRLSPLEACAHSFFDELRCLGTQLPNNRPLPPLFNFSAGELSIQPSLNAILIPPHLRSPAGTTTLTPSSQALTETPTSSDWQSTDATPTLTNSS

| Structure (SMILES) | AC50 |
| --- | --- |
| NCCNc1cc(N2CCCC2)ccc1[N+](=O)[O-] | > 30 µM (inactive) |
| NC1=NC(=O)/C(=C/c2cccs2)S1 | > 30 µM (inactive) |
| CCN(C(=O)CN1CC=C(c2ccccc2)CC1)c1c(N)n(Cc2ccccc2)c(=O)[nH]c1=O | > 30 µM (inactive) |
| COc1cc(/C=N/c2oc(C)c(C)c2C#N)cc(Br)c1O | > 30 µM (inactive) |
| CCOC(=O)c1cnc2c(C(F)(F)F)cccc2c1N1CCN(C)CC1 | > 30 µM (inactive) |
| COc1cccc(CNc2nc(C(F)(F)F)nc3ccccc23)c1 | > 30 µM (inactive) |
| Cc1cccc(N=c2oc3cc(O)ccc3cc2C(N)=O)c1 | 5.52 µM |
| CCC(=O)C1CCCN(C(=O)CCc2nnc(-c3ccc4c(c3)OCO4)o2)C1 (stereo unspecified) | > 30 µM (inactive) |
| O=C(N/N=C/c1cccnc1)c1cc2c(ccc3ccccc32)o1 | > 30 µM (inactive) |
| N#CC1=C2SCN(Cc3ccccc3)CN2C(=O)CC1c1ccccc1F (stereo unspecified) | > 30 µM (inactive) |
| CCOC(=O)c1nnn(-c2nonc2N)c1-c1ccccc1Cl | 8.37 µM |
| COc1ccc(-c2csc3ncnc(NCCCO)c23)cc1 | 20.6 µM |
| Fc1ccc(Nc2ccnc(Nc3ccc(F)cc3)n2)cc1 | > 30 µM (inactive) |
| Cc1ccc(N=Nc2c(O)[nH]c3ccc(F)cc23)cc1 | > 30 µM (inactive) |
| COc1cc2c(C#N)c(N3CCCCC3)nc(N)c2c(N)n1 | 13.4 µM |
| COc1ccc(C(=O)NC(=O)CSc2nnc(-c3ccco3)n2-c2ccccc2)cc1 | > 30 µM (inactive) |
| Fc1ccccc1/C=N/Nc1cc(N2CCCCC2)ncn1 | > 30 µM (inactive) |
| O=[N+]([O-])c1ccc(O)c(/C=N/n2c(-c3ccccc3)n[nH]c2=S)c1 | 26.3 µM |
| CSc1nc(NCC(C)C)nc(N2CCOCC2)n1 | > 30 µM (inactive) |
| COc1ccc(CCNc2cc(C)nc(N)n2)cc1OC | > 30 µM (inactive) |
| COc1ccccc1NC(=O)c1ccc(C(=O)c2ccccc2)o1 | > 30 µM (inactive) |
| CS(=O)(=O)N1CCN(c2ccccc2NC(=O)c2cccs2)CC1 | > 30 µM (inactive) |
| COc1ccc(OC)c(NC(=O)c2nnn(Cc3ccc(Br)cc3F)c2N)c1 | > 30 µM (inactive) |
| O=[N+]([O-])c1ccc(N/N=C/c2ccc(OCc3cccc4ccccc34)cc2)nc1 | > 30 µM (inactive) |
| Fc1ccc(C2=Nn3c(nnc3-c3ccco3)SC2)cc1 | > 30 µM (inactive) |
| Cc1nc(SCC(=O)NCC2CCCO2)c2c3c(sc2n1)CCC3 (stereo unspecified) | > 30 µM (inactive) |

| Structure (SMILES) | AC50 |
| --- | --- |
| Clc1ccc(Nc2nc(NCCN3CCOCC3)nc(N3CCOCC3)n2)cc1 | > 30 µM (inactive) |
| CC1=CC(=C2C(=O)c3ccccc3C2=O)C=C(C)N1Cc1ccco1 | > 30 µM (inactive) |
| CCN1/C(=C/C=C/c2sc3ccccc3[n+]2CC)Sc2ccccc21 | 24.6 µM |
| CCOCCOC(=O)c1[nH]c2c(c1C)C(=O)CC(c1cc(OC)c(OC)c(OC)c1)C2 (stereo unspecified) | > 30 µM (inactive) |
| CC(C)CSc1ncnc2c1oc1nc3c(cc12)COC(C)(C)C3 | > 30 µM (inactive) |
| COc1cccc(/C=C2\Oc3cc(OCC(=O)N4CCC[C@H]4C(=O)O)ccc3C2=O)c1 | > 30 µM (inactive) |
| CC(C)CC(O)C1CCN(C(=O)CCc2nnc(-c3ccc4c(c3)OCO4)o2)CC1 (stereo unspecified) | > 30 µM (inactive) |
| COc1ccc(COC(=O)C2=C(C)NC(=O)NC2c2ccc(OC)c(OC)c2)cc1 (stereo unspecified) | > 30 µM (inactive) |
| CCc1ccc(OCC(O)CNC(C)(C)C)cc1 (stereo unspecified) | > 30 µM (inactive) |
| O=C1NC(=Nc2ccccc2)S/C1=C/c1cccs1 | > 30 µM (inactive) |
| O=C(CNCC1CCCO1)Nc1ccc([N+](=O)[O-])cc1C(=O)Nc1ccccc1F (stereo unspecified) | > 30 µM (inactive) |
| Fc1cccc(Nc2nc(-c3ccncc3)nc3ccccc23)c1 | > 30 µM (inactive) |
| CCN(CC)c1nc(N)c([N+](=O)[O-])c(NCCO)n1 | > 30 µM (inactive) |
| O=c1c(O[C@@H]2O[C@H](CO)[C@@H](O)[C@H](O)[C@H]2O)c(-c2ccc(O)cc2)oc2cc(O)cc(O)c12 | 30.4 µM |
| CC(Oc1ccc(Br)cc1)C(=O)N1CCC(C(N)=O)CC1 (stereo unspecified) | > 30 µM (inactive) |
| N#C/C(=C/Nc1ccccc1)c1ccsc1 | > 30 µM (inactive) |
| O=C(CSc1nc2[nH]ncc2c(=O)n1-c1ccccc1)NCc1cccs1 | > 30 µM (inactive) |
| O=C(c1ccc(F)cc1)c1cnc(Nc2ccccc2)s1 | > 30 µM (inactive) |
| Cc1cc(C)c2[nH]c(O)c(N=Nc3ccc(C(=O)O)cc3)c2c1 | > 30 µM (inactive) |
| COc1ccccc1N1C(=O)C2C(c3ccc(F)cc3)NN(C(=O)c3ccc(C)cc3)C2C1=O (stereo unspecified) | > 30 µM (inactive) |
| Cc1cc(C)cc(NC(=O)CSCc2nc3c(nnn3Cc3ccc(F)cc3)c(=O)[nH]2)c1 | > 30 µM (inactive) |
| COc1ccc(COC(=O)C2=C(C)NC(=O)NC2c2cccc(Br)c2)cc1 (stereo unspecified) | 16.9 µM |
| CCOc1ccc(-c2c(C(=O)N/N=C(\C)c3ccncc3)nnn2-c2nonc2N)cc1 | 20.9 µM |
| Nc1nonc1-n1nnc(C(=O)N/N=C/c2cccs2)c1CSc1ccccc1 | > 30 µM (inactive) |
| N#Cc1c(Nc2ccccc2)c(C=NCCN2CCOCC2)c[nH]c1=O | > 30 µM (inactive) |
| COc1cccc(N(CC(=O)Nc2cccc(C(C)=O)c2)S(C)(=O)=O)c1 | > 30 µM (inactive) |

| Structure (SMILES) | AC50 |
| --- | --- |
| Cc1ccc(-c2cc(-c3n[nH]c(=S)o3)c3ccccc3n2)cc1 | 27.7 µM |
| CCCOc1ccc(-c2nnc(N)s2)cc1 | > 30 µM (inactive) |
| C[C@@H]1O[C@@H](O[C@H]2[C@H](O)[C@@H](O)[C@H](Oc3c(-c4ccc(O)c(O)c4)oc4cc(O)cc(O)c4c3=O)O[C@@H]2CO)[C@H](O)[C@H](O)[C@H]1O | > 30 µM (inactive) |
| Cc1ccc(S(=O)(=O)c2c(C(=O)c3ccccc3)cnc3cc4c(cc23)OCCO4)cc1 | > 30 µM (inactive) |
| COc1ccccc1/C=C1\S/C(=N/NC(=O)c2cccc(Br)c2)NC1=O | > 30 µM (inactive) |
| COC1(OC)N=C(N)C2(C#N)C(c3cccc(Oc4ccccc4)c3)C12C#N (stereo unspecified) | > 30 µM (inactive) |
| c1ccc(-c2csc3ncnc(NCc4ccccn4)c23)cc1 | 24.5 µM |
| COc1ccc(NC(=O)CSc2nnc(-c3cccc(O)c3)o2)cc1 | > 30 µM (inactive) |
| Cc1cccc(NC(=O)CSCC(=O)OCc2ccccn2)c1 | > 30 µM (inactive) |
| O=C1/C(=C/c2ccco2)Oc2c1ccc(O)c2CN1CCCCC1 | 10 µM |
| CCSc1nc2c(c(=O)[nH]1)C(c1ccccn1)C1=C(CC(C)(C)CC1=O)N2 (stereo unspecified) | > 30 µM (inactive) |
| c1csc(CNc2ncnc3sccc23)c1 | > 30 µM (inactive) |
| Oc1[nH]c2ccc(Br)cc2c1N=Nc1ccc(F)cc1 | 7.48 µM |
| COc1ccc(NC(=O)c2c(Nc3ccccc3)sc(C(=O)c3ccc(F)cc3)c2N)cc1 | > 30 µM (inactive) |
| COC(=O)c1c(NC(=O)COC(=O)c2ccccn2)sc(C)c1C | > 30 µM (inactive) |
| CCOC(=O)/C(C#N)=C/c1cn(CCC(=O)O)nc1-c1cccc(Br)c1 | > 30 µM (inactive) |
| CCOC(=O)c1cc(-c2ccccc2)n(CCC(=O)NC(C)CC)c1C (stereo unspecified) | > 30 µM (inactive) |
| O=[N+]([O-])c1c(NCCCO)cc(Sc2nc3ccccc3s2)c2nonc12 | > 30 µM (inactive) |
| O=S(=O)(c1ccc(Cl)nc1)N1CCN(Cc2ccc3c(c2)OCO3)CC1 | > 30 µM (inactive) |
| Cn1c(SCc2nc(-c3ccc(Cl)cc3)no2)nnc1-c1ccccc1 | > 30 µM (inactive) |
| COC(=O)c1cnn(C(=O)c2ccccc2Br)c1N | > 30 µM (inactive) |
| CN1/C(=C/C(=S)NC(=O)C2(C)CC2(Cl)Cl)C(C)(C)c2ccccc21 (stereo unspecified) | > 30 µM (inactive) |
| O=C(NCCCN1CCOCC1)c1ccc(Cl)c([N+](=O)[O-])c1 | > 30 µM (inactive) |
| O=C1NC(c2ccccc2)(C(F)(F)F)C(=O)N1Cc1cccnc1 (stereo unspecified) | > 30 µM (inactive) |
| O=C1/C(=C/c2ccc3c(c2)OCO3)Oc2cc(OCC(=O)N3CC(O)C[C@H]3C(=O)O)ccc21 (stereo partly specified) | 4.07 µM |
| CN(C)c1ncnc2c1ncn2C1OC(CO)C(O)C1O (stereo unspecified) | > 30 µM (inactive) |

| Structure (SMILES) | AC50 |
| --- | --- |
| O=[N+]([O-])c1cc(S(=O)(=O)N2CCCCC2)ccc1NCCCN1CCOCC1 | > 30 µM (inactive) |
| Cc1ccc2c(c1)Oc1ccc(NC(=O)CCl)cc1C(=O)N2 | > 30 µM (inactive) |
| COc1ccc(C(=O)OCC(=O)Nc2c(C)n(C)n(-c3ccccc3)c2=O)cc1 | > 30 µM (inactive) |
| c1ccc(Cn2nc(-c3ccccc3)nc2-c2ccccc2)cc1 | > 30 µM (inactive) |
| O=C1/C(=C/c2ccc(O)c(O)c2)Oc2cc(O)ccc21 | 10.5 µM |
| Cc1cnn(C(=O)c2ccccc2Br)c1 | > 30 µM (inactive) |
| O=C(C[n+]1ccccc1)c1ccc(Cl)cc1 | > 30 µM (inactive) |
| COc1ccc2ccccc2c1/C=N/NC(=O)c1sc(N)c(C#N)c1C | 25.3 µM |
| Nc1nc(Nc2ccc(Cl)cc2)n[nH]1 | > 30 µM (inactive) |
| CCCCn1c(SCC(=O)Nc2sc3c(c2C(N)=O)CCC3)nnc1-c1ccccc1 | > 30 µM (inactive) |
| CCN1CCN(c2nc(Nc3ccc(C)c(C)c3)nc(N)c2[N+](=O)[O-])CC1 | > 30 µM (inactive) |
| CCNc1c(C(=O)O)ccc2c1C(=O)c1ccccc1C2=O | > 30 µM (inactive) |
| COc1ccc(C(=O)c2sc3nc(-c4ccc(OC)cc4)ccc3c2N)cc1 | > 30 µM (inactive) |
| Cc1cccc(N(CC(O)CN2CCCC2)S(=O)(=O)c2ccccc2)c1 (stereo unspecified) | > 30 µM (inactive) |
| Clc1ccc(OCc2nnc(SCc3nnc(-c4ccccc4)o3)o2)c(Cl)c1 | > 30 µM (inactive) |
| O=C(O)c1[nH]c2ccc([N+](=O)[O-])cc2c1-c1ccccc1 | 11 µM |
| COC(=O)CCCCCCCCC(O)CN(C)C (stereo unspecified) | > 30 µM (inactive) |
| CCOC(=O)N1CC=C2C(C#N)=C(N)C(C#N)(C#N)[C@H](c3cccs3)[C@H]2C1 | 22.1 µM |
| CNC(=O)c1ccsc1NC(=O)C1CCCN1S(=O)(=O)c1cccs1 (stereo unspecified) | 17.2 µM |
| Cc1oc2ccc(O)c(CN3CCOCC3)c2c1C(=O)c1ccc(Cl)cc1 | > 30 µM (inactive) |
| Nc1nc(NCCOCCO)nc(N2CCCCCC2)c1[N+](=O)[O-] | 26.4 µM |
| CCOC(=O)N1CCC(N2CCN(S(=O)(=O)c3ccc4ccccc4c3)CC2)CC1 | > 30 µM (inactive) |
| CC(=O)Nc1ccc(CC#N)cc1 | > 30 µM (inactive) |
